Legend:
HEK293sieSTAT3(Y640F) [1] = assay: drug sensitivity score (DSS), viability CellTiter-Glo (DSS (dimensionless)); higher = more growth inhibition; extreme values may be limits of the assay; settings: 72 h; STAT3 variant: Y640F (constitutively active)
Method in brief: (§1)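 A drug sensitivity score, based on the area of the dose-response curve, was calculated in Breeze after normalising values to negative and positive control wells. It came from HEK293 cells carrying a STAT3-dependent luciferase reporter and overexpressing wild-type or mutant STAT3, plated at 20 μl of 100,000 cells/ml onto compounds acoustically pre-plated at 5 concentrations in 10-fold dilutions in 384-well plates. Following 72 hours at 37°C and 5% CO2, CellTox Green fluorescence (485/520 nm) and then CellTiter-Glo luminescence were read on a PHERAstar FS.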

HEK293sieSTAT3(wt) [2] = assay: as above; settings: 72 h; STAT3 variant: wild type
Method in brief: as §1

HEK293sieSTAT3(Y640F) [3] = assay: drug sensitivity score (DSS), cytotoxicity CellTox Green (DSS (dimensionless)); higher = more cytotoxic; extreme values may be limits of the assay; settings: 72 h; STAT3 variant: Y640F (constitutively active)
Method in brief: as §1

HEK293sieSTAT3(wt) [4] = assay: as above; settings: 72 h; STAT3 variant: wild type
Method in brief: as §1

Row | SMILES | drug sensitivity score (HEK293sieSTAT3(Y640F) [1]) | drug sensitivity score (HEK293sieSTAT3(wt) [2]) | drug sensitivity score (HEK293sieSTAT3(Y640F) [3]) | drug sensitivity score (HEK293sieSTAT3(wt) [4])
1 | CCc1nc(-c2cccc(C)c2)c(-c2ccnc(NC(=O)c3ccccc3)c2)s1 [TAK-715] (top concentration tested 10000 nM) | 4.68 | 4.5 | 0 | 0
2 | Cn1c(=O)c(F)c(Nc2ccc(I)cc2F)c2c(=O)n(C[C@@H](O)CO)cnc21 [TAK-733] (top concentration tested 1000 nM) | 1.47 | 0 | 0 | 0
3 | CCS(=O)(=O)c1cccc(-c2cc(C(=O)NC3CCN(C)CC3)c(C)c3[nH]c4ncc(C)cc4c23)c1 [TAK-901] (top concentration tested 1000 nM) | 4.54 | 4.52 | 0 | 2.83
4 | COc1cc(C(=O)NC2CCN(C)CC2)c(F)cc1Nc1ncc2c(n1)N(C1CCCC1)CC(F)(F)C(=O)N2C [TAK-960] (top concentration tested 2500 nM) | 0 | 0 | 0.89 | 0
5 | Cc1cccc(-c2[nH]c(CNc3ccccc3F)nc2-c2ccc3ncnn3c2)n1 [TEW-7197] (top concentration tested 2500 nM) | 2.53 | 1.04 | 0 | 0.27
6 | Nc1nc(N)c2nc(-c3cccc(O)c3)c(-c3cccc(O)c3)nc2n1 [TG100-115] (top concentration tested 10000 nM) | 0.15 | 0 | 0 | 0
7 | Cc1cc(C(C)Nc2ccccc2)c2nc(N3CCOCC3)cc(=O)n2c1 (stereo not given) [TGX-221] (top concentration tested 10000 nM) | 0.57 | 0 | 0 | 0
8 | Nc1nc(NC2CC2)cc(-c2cccc(Cl)c2Cl)n1 [TH588] (top concentration tested 25000 nM) | 3.43 | 6.38 | 2.04 | 5.04
9 | NC(=O)Nc1sc(-c2ccc(F)cc2)cc1C(N)=O [TPCA-1] (top concentration tested 25000 nM) | 5.84 | 7.61 | 0.96 | 5.56
10 | Clc1ccccc1C(c1ccccc1)(c1ccccc1)n1cccn1 [TRAM-34] (top concentration tested 1000 nM) | 1.41 | 1.55 | 0 | 0

From the supplement of paper PMC7108870
